Measurements: US4373094A, “Anthracycline derivatives” (Sanraku-Ocean Co., Ltd., priority 1980, dated 1983)
Converted amounts (≈) assume the structure as drawn.

Assays:
[1] = tested on: mouse leukemia L1210 cells; experiment: Growth inhibition of cultured mouse leukemia L1210 cells (living cells counted); assay type: cell-based; conditions: for IC50: Mus musculus, L1210, L1210 cells, read-out: 50% Inhibitory concentration, Growth inhibition after 24 hours; for antitumor effect on L1210 leukemia cells: in words
Experimental: The L1210 cells were cultivated at 37° C. overnight and transferred to RPMI (Roswell Park Memorial Institute) 1640 medium containing 20% calf serum at their exponential growth phase so as to give a cell concentration of 4×10^4 cells/ml. The compounds of the present invention were added to the medium at a concentration of 0.02-0.5 μg/ml. […]
(§1) Independently of the above-mentioned experiment, the compounds of the present invention were added to an about 5×10^5 cells/ml L1210 cell suspension in RPMI 1640 medium containing 10% calf serum at a concentration of 0.02-2.5 μg/ml. After 15 minutes, ^14 C-uridine (0.05 μCi/ml) or ^14 C-thymidine (0.05 μCi/ml) was added to the suspension and pulse-labeling was carried out at 37° C. for 60 minutes. The reaction was stopped by addition of a cold 10% trichloroacetic acid solution and an acid-insoluble fraction was precipitated. The precipitate was washed with a cold 5% trichloroacetic acid and the radioactivity was measured.

L1210 cells [2] = experiment: Inhibition of DNA synthesis (14C-thymidine incorporation) in L1210 cells; assay type: cell-based, mouse; conditions: RPMI 1640 medium containing 10% calf serum, pulse-labeling 37° C. for 60 minutes; for IC50: Mus musculus, 1 h, read-out: 50% Inhibitory concentration, 14C-Thymidine (Inhibition of DNA synthesis)
Experimental: as §1

L1210 cells [3] = experiment: Inhibition of RNA synthesis (14C-uridine incorporation) in L1210 cells; assay type: cell-based, mouse; conditions: RPMI 1640 medium containing 10% calf serum, pulse-labeling 37° C. for 60 minutes; for IC50: Mus musculus, L1210, 1 h, read-out: 50% Inhibitory concentration, 14C-Uridine (Inhibition of RNA synthesis)
Experimental: as §1

Solubility in solvents = assay type: physicochemical; conditions: for Solubilities: slightly soluble: slightly soluble solvents; for Solubilities: soluble: soluble solvents
[4] = RPMI 1640 medium containing 20% calf serum, 37° C., head: after 24 hours (text: 3 days)

CCC1(O)CC(OC2CC(N(C)C)C(OC3CC(O)C(OC4CCC(=O)C(C)O4)C(C)O3)C(C)O2)c2c(cc3c(c2O)C(=O)c2c(O)cc(O)cc2C3=O)C1C(=O)OC (stereo not shown) [2-hydroxy-aclacinomycin A, reference compound]
IC50 [1, 4]: 0.15 µg/mL (≈ 0.181 µM)
IC50 (L1210 cells [2]): 0.9 µg/mL (≈ 1.09 µM)
IC50 (L1210 cells [3]): 0.14 µg/mL (≈ 0.169 µM)

CCC1(O)CC(OC2CC(N(C)C)C(OC3CC(O)C(OC4CCC(O)C(C)O4)C(C)O3)C(C)O2)c2c(cc3c(c2O)C(=O)c2c(O)cc(O)cc2C3=O)C1C(=O)OC (stereo not shown) [2-hydroxy-aclacinomycin M]
IC50 [1, 4]: 0.08 µg/mL (≈ 0.0964 µM)
antitumor effect on L1210 leukemia cells [1]: have an antitumor effect on L1210 leukemia cells
IC50 (L1210 cells [2]): 1.2 µg/mL (≈ 1.45 µM)
IC50 (L1210 cells [3]): 0.1 µg/mL (≈ 0.12 µM)
Solubilities: slightly soluble (Solubility in solvents): slightly soluble in water, ether and n-hexane
Solubilities: soluble (Solubility in solvents): soluble in acidic water, methanol, ethanol, n-butanol, acetone, ethyl acetate, chloroform, benzene, toluene, dimethylsulfoxide and methyl cellosolve

CCC1(O)CC(OC2CC(N(C)C)C(OC3CC(O)C(OC4CCC(O)C(C)O4)C(C)O3)C(C)O2)c2c(cc3c(c2O)C(=O)c2c(O)cc(O)cc2C3=O)C1C(=O)OC (stereo not shown) [2-hydroxy-aclacinomycin N]
50% Inhibitory concentration, Growth inhibition after 24 hours ([1]; L1210 cells, RPMI 1640 medium containing 20% calf serum, 37° C., head: after 24 hours (text: 3 days)): 0.095 µg/mL
antitumor effect on L1210 leukemia cells [1]: have an antitumor effect on L1210 leukemia cells
50% Inhibitory concentration, 14C-Thymidine (Inhibition of DNA synthesis) (L1210 cells [2]): 1.2 µg/mL
50% Inhibitory concentration, 14C-Uridine (Inhibition of RNA synthesis) (L1210 cells [3]): 0.18 µg/mL
Solubilities: slightly soluble (Solubility in solvents): slightly soluble in water, ether and n-hexane
Solubilities: soluble (Solubility in solvents): soluble in acidic water, methanol, ethanol, n-butanol, acetone, ethyl acetate, chloroform, benzene, toluene, dimethylsulfoxide and methyl cellosolve

CCC1(O)CC(OC2CC(N(C)C)C(OC3CC(O)C(O)C(C)O3)C(C)O2)c2c(cc3c(c2O)C(=O)c2c(O)cc(O)cc2C3=O)C1C(=O)OC (stereo not shown) [2-hydroxy-aclacinomycin S]
IC50 [1, 4]: 0.7 µg/mL (≈ 0.978 µM)
antitumor effect on L1210 leukemia cells [1]: have an antitumor effect on L1210 leukemia cells
IC50 (L1210 cells [3]): 1.3 µg/mL (≈ 1.82 µM)
Solubilities: slightly soluble (Solubility in solvents): slightly soluble in water, ether and n-hexane
Solubilities: soluble (Solubility in solvents): soluble in acidic water, methanol, ethanol, n-butanol, acetone, ethyl acetate, chloroform, benzene, toluene, dimethylsulfoxide and methyl cellosolve

CCC1(O)CC(OC2CC(N(C)C)C(O)C(C)O2)c2c(cc3c(c2O)C(=O)c2c(O)cc(O)cc2C3=O)C1C(=O)OC (stereo not shown) [2-hydroxy-aclacinomycin T]
IC50 [1, 4]: 0.46 µg/mL (≈ 0.786 µM)
antitumor effect on L1210 leukemia cells [1]: have an antitumor effect on L1210 leukemia cells
IC50 (L1210 cells [3]): 1 µg/mL (≈ 1.71 µM)
Solubilities: slightly soluble (Solubility in solvents): slightly soluble in water, ether and n-hexane
Solubilities: soluble (Solubility in solvents): soluble in acidic water, methanol, ethanol, n-butanol, acetone, ethyl acetate, chloroform, benzene, toluene, dimethylsulfoxide and methyl cellosolve
